From article PMC6340882, “Targeting protein kinase CK2 and CDK4/6 pathways with a multi-kinase inhibitor ON108110 suppresses pro-survival signaling and growth in mantle cell lymphoma and T-acute lymphoblastic leukemia” (Oncotarget, 2018) come the findings set out here.

By Kd is commonly meant the constant that tells how readily two partners part at equilibrium.

Data set [1] relates to Granta-519 and CEM cells. The data set is described as follows: Cell cycle analysis, propidium iodide staining and flow cytometry. The format is cell-based, human. The following applies: 0.5-2.0μM, 24 hours. On the procedure: (§1) Figure 5 Modulation of cell cycle expression and induction of apoptosis in ON 108110-treated MCL and T-ALL cell lines (A) CEM and Granta-519 cells were treated with either DMSO or increasing concentrations of ON108110 (0.5-2.0μM) for 24 hours. Cell cycle analysis was performed using propidium iodide staining. (B) CEM, HBL-2, RS4-11 and Granta-519 cells were treated with either DMSO (vehicle) or increasing concentrations of ON108110 (0.5-2.0 μM) for 24 hours and stained with Annexin V/DAPI (C) Graphical representation of apoptosis induced as shown in B. (D) Granta-519 cells were treated with increasing concentrations of ON108110 for 24 hours. Caspase activation and viability were measured using the Caspase Glo 3/7 and Cell Titer Blue assay kits, respectively. […]
(§2) To determine cell cycle distribution, 70% ethanol fixed cells were washed with phosphate buffered saline (PBS), resuspended in PBS and incubated with RNase and propidium iodide at 37°C for 20 min. DNA content was analyzed on a FACS Calibur (BD Immunocytometry Systems) and the data analyzed using Flowjo software (Treestar). Annexin V staining was measured using the FITC Annexin V Apoptosis Detection Kit I (BD Biosciences) according to the instructions of the manufacturer except that DAPI was substituted at a concentration of […] to measure DNA content.

Data set [2] relates to CDK4/6-specific RB phosphorylation in Granta-519 and CEM cells. As to the kind of experiment: Western blot of phosphorylated RB (Ser780 and Ser 807/811). It counts as cell-based, human. The following applies: increasing concentrations, 24 hours. On the procedure: Figure 6 Inhibition of CK2/CDK4 mediated signaling by ON108110 (A) CEM and (B) Granta-519 cells were treated with increasing concentrations of ON 108110 for 24 hours. Whole cell extracts were subjected to western blot analysis using antibodies directed against the indicated proteins. GAPDH is shown as a loading control.
Cells were grown as indicated, lysed in lysis buffer (20mM Tris, pH 8.0/ 137mM NaCl/ 10% glycerol/ 1% NP-40) supplemented with 1X protease and phosphatase inhibitor cocktail on ice and resolved by SDS-PAGE. The proteins were transferred to a nitrocellulose membrane and subjected to Western blot analysis using the indicated antibodies. Proteins were visualized using an Odyssey imaging system (LI-COR Biosciences).
(In general: A western blot detects proteins with antibodies after separation by electrophoresis.)

In data set [3] the test system is panel of solid tumor and leukemic cell lines. As to the kind of experiment: Primary growth inhibition screen, MCLs and T-ALLs compared to other tumor types. It counts as cell-based, human. The following applies: from GI50 values of primary screen. The procedure:
Cell lines were cultured in RPMI-1640 medium (Thermo Scientific) supplemented with 10% heat inactivated FBS and penicillin-streptomycin at 37°C under humidified conditions and 5% CO2. All cell lines tested negative for mycoplasma. […] Compounds were added 24 hrs post-plating at the indicated concentrations. Cell counts were determined from duplicate wells 96 hrs post-treatment using the Cell Titer Blue assay in conjunction with the GloMax plate reader (Promega).

In data set [4] the test system is CEM, HBL-2, RS4-11 and Granta-519 cells. The data set is described as follows: Apoptosis, Annexin V/DAPI staining. The note with it: 0.5-2.0 μM, 24 hours post-treatment. The format is cell-based, human. The procedure:
as §1, §2

Data set [5] concerns the target T1, recombinant CK2α1 (Homo sapiens, UniProt P68400).
T1 construct: Amino acid residues 3-335 of CK2α1 were cloned using BamH1 and HindIII into pET28bsmt3-SUMO fusion vector; SUMO (N); made in house; host or cells: Escherichia coli BL21-DE3 (RIL)
As to the kind of experiment: Microscale thermophoresis (MST). The format is binding. The following applies: 16 concentrations 0.1nM-1000nM, average of 3 independent experiments. On the procedure: Purified His6-CK2α1 (kinase domain) was labeled with red NT-647 cysteine-reactive dye according to the manufacturer (NanoTemper Technologies). A fixed quantity of NT-647-labeled CK2α1 (50nM) was incubated with the indicated concentrations of ON108110 in binding buffer (20 mM Tris-HCl, pH 7.5, 150 mM NaCl, 1 mM MgCl2, 0.1% Triton X-100, and 2% DMSO) at room temperature in the dark for 30 min. Samples were then loaded into hydrophilic capillaries (NanoTemper Technologies) and binding was measured using the Monolith NT.115 (NanoTemper Technologies). Binding data were analyzed using thermophoresis or hot/cold analysis, as previously described prior to normalization to either ΔFnorm[%(10^*(Fnorm(bound)-Fnorm(unbound)) or fraction bound (ΔFnorm[%]/amplitude). Dissociation constants (Kd) were calculated using built-in curve-fitting software provided by the manufacturer (NanoTemper Technologies).
Background: MST reads how a fluorescent partner responds to local heating, with and without ligand.

T1 sequence (P68400 3-335): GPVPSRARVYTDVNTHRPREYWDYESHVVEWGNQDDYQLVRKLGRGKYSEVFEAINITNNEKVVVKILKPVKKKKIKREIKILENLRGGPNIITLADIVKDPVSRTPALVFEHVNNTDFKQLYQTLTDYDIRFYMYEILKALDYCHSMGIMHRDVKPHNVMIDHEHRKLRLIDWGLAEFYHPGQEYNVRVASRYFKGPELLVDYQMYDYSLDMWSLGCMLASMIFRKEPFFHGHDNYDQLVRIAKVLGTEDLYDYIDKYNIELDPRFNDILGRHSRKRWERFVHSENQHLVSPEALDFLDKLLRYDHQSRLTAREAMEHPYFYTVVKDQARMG

For `CC(=O)Oc1ccc(/C=C2\Sc3ccc(F)cc3NC2=O)cc1[N+](=O)[O-]` [ON108110], the “effect on cell cycle progression” value in data set [1] is “rapid accumulation of the cells in the G1 phase”. Besides, the “CDK4/6-specific RB phosphorylation (Ser780 and Ser 807/811)” value in data set [2] is “concentration-dependent inhibition”. For the same compound, the “fold higher cytotoxicity against MCLs and T-ALLs compared to other tumor types” value in data set [3] is 10-20 fold. In addition, the “frequency of apoptotic cells (Annexin V)” value in data set [4] was “concentration-dependent increase in the frequency of apoptotic cells”. Besides, the Kd in data set [5] came to 2.5 nM.
